{"source": "patent US20130136809A1", "about": "“7-HYRDROXYFRULLANOLIDE ITS ANALOGS FOR PREVENTION CONTROL AND TREATMENT OF METABOLIC DISORDERS” (LAILA NUTRACEUTICALS, priority 2009, published 2013)", "key": {"[1]": {"system": "3T3-L1 pre-adipocyte cells", "assay": "Inhibition of lipid accumulation in differentiated adipocytes (Oil Red O)", "assay_type": "cell-based, mouse", "conditions": "3T3-L1 adipocytes; for inhibition at 2.5 µg/mL: 2.5 μg/mL", "description": "One hundred thousand 3T3-L1 […] pre-adipocyte cells in Dulbecco's Modified Eagles Medium (DMEM) containing 10% Fetal Bovine Serum (FBS) were taken into each well of a 24-well plate and incubated for 48 h at 37° C. and 5% CO2. The differentiation of pre-adipocyte cells was initiated in a differentiation medium containing 10 μg/ml insulin, 1.0 μM dexamethasone, and 0.5 mM isobutylmethylxanthine (IBMX) for 48 h. After this the medium was replaced by DMEM containing 10 ug/ml insulin and incubated for 3 days. Then the differentiating cells were treated with […] of 7-hydroxyfrullanolide (1) or different natural analogs (structure numbers 3 to 11) or semi-synthetic analogs (structure numbers 12 to 25) of 7-HF. The cells were maintained in the medium for another 3-5 days. The cells incubated with 0.1% DMSO were considered as the vehicle control. After the incubation period, cells were washed with phosphate buffered saline (PBS) and fixed with 10% buffered formalin for 1 h at room temperature. One small aliquot of cell suspension was separated for cell counting in hemocytometer chamber. Fixed cells were stained with Oil Red O solution to measure the cellular neutral lipid accumulation. Briefly, cells were washed with PBS, fixed with 10% buffered formalin and stained with Oil Red O solution (0.5 g in 100 ml isopropanol) for […]. After removing the staining solution, the dye retained in the cells will be eluted into isopropanol and OD measured at 550 nm. The inhibition of fat accumulation in the treated cells was compared with the mock treated differentiated adipocytes. The treated and control cells were also analyzed and compared for inhibition of lipid accumulation visually under microscope and recorded digitally in suitable image capture system. The anti-adipogenic activity by 7-HF is depicted in Figure I and the percentage inhibition of lipid accumulation shown by 7-HF and its natural and semi-synthetic analogs is summarized in Table-1."}, "[2]": {"system": "3T3-L1 pre-adipocyte cells", "assay": "Pro-lipolytic activity in differentiated adipocytes (free glycerol release)", "assay_type": "cell-based, mouse", "conditions": "increase in glycerol release", "description": "The lipolytic activity was assessed in mature adipocytes as per the procedure of Chemicon International, USA, by measuring free glycerol secreted into the culture medium. One hundred thousand 3T3-L1 […] pre-adipocyte cells in Dulbecco's Modified Eagles Medium (DMEM) containing 10% Fetal Bovine Serum (FBS) were taken into each well of a 24-well plate and incubated for 48 h at 37° C. and 5% CO2. The differentiation of pre-adipocyte cells was initiated in a differentiation medium containing 10 µg/ml insulin, 1.0 µM dexamethasone, and 0.5 mM isobutylmethylxanthine (IBMX). The cells were differentiated for 5 days and then the culture medium was removed. The monolayer was washed twice with wash solution (Hank's balanced salt solution), and then 250 µL of incubation solution (Hank's balanced salt solution plus 2% bovine serum albumin) was added to the wells in triplicate in presence or absence of 7-hydroxyfrullanolide or its analogs or the extracts containing 7-HF, and the cells were further incubated for 16 h. To measure lipolysis, 200 μL of free glycerol assay reagent was added to 25 µL of culture supernatants and controls containing glycerol standard. The samples and the controls were incubated for 15 min, and the absorbance was read at 540 nm. A standard curve constructed from the glycerol was used to calculate the concentration of free glycerol in the culture supernatants. The percentage increase in glycerol concentration in the sample solutions compared to the control containing the known concentrations of glycerol corresponds to the percentage acceleration of lipolysis by test compound."}}, "data": [{"compound": "C=C1C(=O)OC2C3=C(C)CCCC3(C)CCC12", "note": "(centres unmarked) [Compound-1, 3,3a,4,5,5a,6,7,8-octahydro-5a,9-dimethyl-3-methylenenaphtho[1,2-b]furan-2(9bH)-one]", "values": [{"measurement": "inhibition at 2.5 µg/mL", "setting": "[1]; Homo sapiens", "value": 19.4, "unit": "%"}, {"measurement": "% acceleration of lipolysis", "setting": "[2]; 10 μg/mL", "value": 44.6, "unit": "%"}]}, {"compound": "C=C1C(=O)O[C@@H]2[C@@]1(O)CC[C@@]1(C)CCCC(=C)[C@]21OO", "note": "[Compound-3, (3aR,5aR,9aR,9bR)-decahydro-9a-hydroperoxy-3a-hydroxy-5a-methyl-3,9-dimethylenenaphtho[1,2-b]furan-2(9bH)-one]", "values": [{"measurement": "inhibition at 2.5 µg/mL", "setting": "[1]; Homo sapiens", "value": 40.5, "unit": "%"}, {"measurement": "% acceleration of lipolysis", "setting": "[2]; 5 μg/mL", "value": 39.6, "unit": "%"}]}, {"compound": "C=C1C(=O)O[C@H]2C3=C(C)C(O)CC[C@]3(C)CC[C@@]12O", "note": "(stereo partly drawn) [Compound-10, (3aR,5aR,9bS)-3,3a,4,5,5a,6,7,8-octahydro-3a,8-dihydroxy-5a,9-dimethyl-3-methylenenaphtho[1,2-b]furan-2(9bH)-one]", "values": [{"measurement": "inhibition at 2 µg/mL", "setting": "[1]; Homo sapiens, 2.0 μg/mL", "value": 45, "unit": "%"}]}, {"compound": "C=C1C(=O)O[C@H]2C3=C(C)C(=O)CC[C@]3(C)CC[C@@]12O", "note": "[Compound-11, (3aR,5aS,9bS)-3a,4,5,5a,6,7-hexahydro-3a-hydroxy-5a,9-dimethyl-3-methylenenaphtho[1,2-b]furan-2,8(3H,9bH)-dione]", "values": [{"measurement": "inhibition at 2 µg/mL", "setting": "[1]; Homo sapiens, 2.0 μg/mL", "value": 8, "unit": "%"}]}, {"compound": "CC1=CCC[C@]2(C)CCC3=C(C=O)C(=O)OC3=C12", "note": "[Compound-12, (R)-2,4,5,5a,6,7-hexahydro-5a,9-dimethyl-2-oxonaphtho[1,2-b]furan-3-carbaldehyde]", "values": [{"measurement": "inhibition at 2 µg/mL", "setting": "[1]; Homo sapiens, 2.0 μg/mL", "value": 55, "unit": "%"}, {"measurement": "% acceleration of lipolysis", "setting": "[2]; 5 μg/mL", "value": 45.2, "unit": "%"}]}, {"compound": "C=C1C(=O)OC2C1(O)CCC1(C)CCCC3(C)OC213", "note": "(centres unmarked) [Compound-13, 4,5-epoxy-7-hydroxyfrullanolide]", "values": [{"measurement": "% inhibition of lipid accumulation", "setting": "[1]; 2.0 μg/mL", "value": 79.7, "unit": "%"}, {"measurement": "% acceleration of lipolysis", "setting": "[2]; 5 μg/mL", "value": 52.8, "unit": "%"}]}, {"compound": "CC1=CCC[C@]2(C)CCC3=C(CBr)C(=O)OC3=C12", "note": "[Compound-14, (R)-3-(bromomethyl)-5,5a,6,7-tetrahydro-5a,9-dimethylnaphtho[1,2-b]furan-2(4H)-one]", "values": [{"measurement": "inhibition at 2 µg/mL", "setting": "[1]; Homo sapiens, 2.0 μg/mL", "value": 14, "unit": "%"}]}, {"compound": "CC1=C2[C@@H]3OC(=O)C(CN4CCOCC4)[C@]3(O)CC[C@@]2(C)CCC1", "note": "(stereo partly drawn) [Compound-17, (3aR,5aR,9bS)-3,3a,4,5,5a,6,7,8-octahydro-3a-hydroxy-5a,9-dimethyl-3-(morpholinomethyl)naphtho[1,2-b]furan-2(9bH)-one]", "values": [{"measurement": "inhibition at 2 µg/mL", "setting": "[1]; Homo sapiens, 2.0 μg/mL", "value": 36.2, "unit": "%"}]}, {"compound": "CC1=C2[C@@H]3OC(=O)C(CN4CCOCC4)[C@]3(O)CC[C@@]2(C)CCC1O", "note": "(stereo partly drawn) [Compound-18, (3aR,5aR,9bS)-3,3a,4,5,5a,6,7,8-octahydro-3a,8-dihydroxy-5a,9-dimethyl-3-(morpholinomethyl)naphtho[1,2-b]furan-2(9bH)-one]", "values": [{"measurement": "inhibition at 2.5 µg/mL", "setting": "[1]; Homo sapiens", "value": 133, "unit": "%"}]}, {"compound": "CC1=C2[C@@H]3OC(=O)C(CN4CCCCC4)[C@]3(O)CC[C@@]2(C)CCC1", "note": "(stereo partly drawn) [Compound-19, (3aR,5aR,9bS)-3,3a,4,5,5a,6,7,8-octahydro-3a-hydroxy-5a,9-dimethyl-3-((piperidin-1-yl)methyl)naphtho[1,2-b]furan-2(9bH)-one]", "values": [{"measurement": "inhibition at 2 µg/mL", "setting": "[1]; Homo sapiens, 2.0 μg/mL", "value": 23.3, "unit": "%"}]}, {"compound": "CC1(O)CCC[C@]2(C)CCC3=C(CN4CCCCC4)C(=O)OC3=C12", "note": "(stereo partly drawn) [Compound-20, (5aR)-5,5a,6,7,8,9-hexahydro-9-hydroxy-5a,9-dimethyl-3-((piperidin-1-yl)methyl)naphtho[1,2-b]furan-2(4H)-one]", "values": [{"measurement": "inhibition at 2 µg/mL", "setting": "[1]; Homo sapiens, 2.0 μg/mL", "value": 7, "unit": "%"}]}, {"compound": "CC1=C2[C@@H]3OC(=O)C(CN4CCNCC4)[C@]3(O)CC[C@@]2(C)CCC1", "note": "(stereo partly drawn) [Compound-22, (3aR,5aR,9bS)-3,3a,4,5,5a,6,7,8-octahydro-3a-hydroxy-5a,9-dimethyl-3-((piperazin-1-yl)methyl)naphtho[1,2-b]furan-2(9bH)-one]", "values": [{"measurement": "inhibition at 1 µg/mL", "setting": "[1]; Homo sapiens, 1.0 μg/mL", "value": 15, "unit": "%"}]}, {"compound": "Piperazine Bis-7-hydroxyfrullanolide [Compound-23]", "values": [{"measurement": "% inhibition of lipid accumulation", "setting": "[1]; 1.0 μg/mL", "value": 15.2, "unit": "%"}]}]}
